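A five-concentration, 48-hour dose response in 96-well plates underlies each endpoint, interpolated linearly between surrounding concentrations. TGI is the concentration that stops growth completely.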
Tests used:
Experiment in all cases: NCI tumour cell line growth inhibition, 48 h
IGROV1 ovarian = tested on: IGROV1 ovarian
T-47D breast = tested on: T-47D breast
NCI-H460 lung = tested on: NCI-H460 lung
HS 578T breast = tested on: HS 578T breast
MALME-3M melanoma = tested on: MALME-3M melanoma
HL-60(TB) leukemia = tested on: HL-60(TB) leukemia
SNB-19 CNS = tested on: SNB-19 CNS
ACHN renal = tested on: ACHN renal
CAKI-1 renal = tested on: CAKI-1 renal
OVCAR-3 ovarian = tested on: OVCAR-3 ovarian
HCT-15 colon = tested on: HCT-15 colon
LOX IMVI melanoma = tested on: LOX IMVI melanoma
SN12C renal = tested on: SN12C renal
NCI-H226 lung = tested on: NCI-H226 lung
PC-3 prostate = tested on: PC-3 prostate
MCF7 breast = tested on: MCF7 breast
SF-295 CNS = tested on: SF-295 CNS
UO-31 renal = tested on: UO-31 renal
M14 melanoma = tested on: M14 melanoma
HT29 colon = tested on: HT29 colon
TK-10 renal = tested on: TK-10 renal
SK-MEL-5 melanoma = tested on: SK-MEL-5 melanoma
MDA-N = tested on: MDA-N
MDA-MB-231 breast = tested on: MDA-MB-231 breast
U251 CNS = tested on: U251 CNS
SK-MEL-28 melanoma = tested on: SK-MEL-28 melanoma
OVCAR-4 ovarian = tested on: OVCAR-4 ovarian
HOP-92 NSCLC = tested on: HOP-92 NSCLC
NCI-H23 lung = tested on: NCI-H23 lung
K-562 leukemia = tested on: K-562 leukemia
COLO 205 colon = tested on: COLO 205 colon
UACC-257 melanoma = tested on: UACC-257 melanoma
OVCAR-5 ovarian = tested on: OVCAR-5 ovarian
SW-620 colon = tested on: SW-620 colon
OVCAR-8 ovarian = tested on: OVCAR-8 ovarian
NCI-H522 lung = tested on: NCI-H522 lung
BT-549 breast = tested on: BT-549 breast
SF-268 CNS = tested on: SF-268 CNS
SK-MEL-2 melanoma = tested on: SK-MEL-2 melanoma
786-0 renal = tested on: 786-0 renal
CCRF-CEM leukemia = tested on: CCRF-CEM leukemia
EKVX NSCLC = tested on: EKVX NSCLC
RXF 393 renal = tested on: RXF 393 renal
NCI/ADR-RES ovarian = tested on: NCI/ADR-RES ovarian
KM12 colon = tested on: KM12 colon
HOP-62 NSCLC = tested on: HOP-62 NSCLC
MOLT-4 leukemia = tested on: MOLT-4 leukemia
DU-145 prostate = tested on: DU-145 prostate
MDA-MB-435 = tested on: MDA-MB-435
A549 NSCLC = tested on: A549 NSCLC
HCT-116 colon = tested on: HCT-116 colon
A498 renal = tested on: A498 renal
UACC-62 melanoma = tested on: UACC-62 melanoma
SK-OV-3 ovarian = tested on: SK-OV-3 ovarian
SNB-75 CNS = tested on: SNB-75 CNS
HCC-2998 colon = tested on: HCC-2998 colon
SF-539 CNS = tested on: SF-539 CNS
RPMI-8226 leukemia = tested on: RPMI-8226 leukemia
SR leukemia = tested on: SR leukemia

C#C[C@]1(O)CC[C@H]2[C@@H]3CCC4=CC(=NCCOC(=O)c5cccc6c(=O)c7ccccc7[nH]c56)CC[C@@H]4[C@H]3CC[C@@]21C
TGI (IGROV1 ovarian): > 100 µM
TGI (T-47D breast): 78.1 µM
TGI (NCI-H460 lung): > 100 µM
TGI (HS 578T breast): > 100 µM
TGI (MALME-3M melanoma): 91.1 µM
TGI (HL-60(TB) leukemia): > 100 µM
TGI (SNB-19 CNS): > 100 µM
TGI (ACHN renal): > 100 µM
TGI (CAKI-1 renal): > 100 µM
TGI (OVCAR-3 ovarian): > 100 µM
TGI (HCT-15 colon): > 100 µM
TGI (LOX IMVI melanoma): 84 µM
TGI (SN12C renal): > 100 µM
TGI (NCI-H226 lung): > 100 µM
TGI (PC-3 prostate): 55 µM
TGI (MCF7 breast): > 100 µM
TGI (SF-295 CNS): > 100 µM
TGI (UO-31 renal): > 100 µM
TGI (M14 melanoma): > 100 µM
TGI (HT29 colon): > 100 µM
TGI (TK-10 renal): > 100 µM
TGI (SK-MEL-5 melanoma): > 100 µM
TGI (MDA-N): > 100 µM
TGI (MDA-MB-231 breast): 72.6 µM
TGI (U251 CNS): 51.4 µM
TGI (SK-MEL-28 melanoma): > 100 µM
TGI (OVCAR-4 ovarian): > 100 µM
TGI (HOP-92 NSCLC): 89.6 µM
TGI (NCI-H23 lung): > 100 µM
TGI (K-562 leukemia): > 100 µM
TGI (COLO 205 colon): > 100 µM
TGI (UACC-257 melanoma): > 100 µM
TGI (OVCAR-5 ovarian): > 100 µM
TGI (SW-620 colon): > 100 µM
TGI (OVCAR-8 ovarian): 48.9 µM
TGI (NCI-H522 lung): > 100 µM
TGI (BT-549 breast): > 100 µM
TGI (SF-268 CNS): > 100 µM
TGI (SK-MEL-2 melanoma): 95.6 µM
TGI (786-0 renal): > 100 µM
TGI (CCRF-CEM leukemia): > 100 µM
TGI (EKVX NSCLC): > 100 µM
TGI (RXF 393 renal): 43.2 µM
TGI (NCI/ADR-RES ovarian): > 100 µM
TGI (KM12 colon): > 100 µM
TGI (HOP-62 NSCLC): > 100 µM
TGI (MOLT-4 leukemia): > 100 µM
TGI (DU-145 prostate): > 100 µM
TGI (MDA-MB-435): > 100 µM
TGI (A549 NSCLC): > 100 µM
TGI (HCT-116 colon): > 100 µM
TGI (A498 renal): > 100 µM
TGI (UACC-62 melanoma): > 100 µM
TGI (SK-OV-3 ovarian): > 100 µM

CC(=O)OC1CC2(C)C(OC(C)=O)CC1C2(C)C (centres undefined)
TGI (IGROV1 ovarian): > 100 µM
TGI (T-47D breast): > 100 µM
TGI (NCI-H460 lung): > 100 µM
TGI (HS 578T breast): > 100 µM
TGI (MALME-3M melanoma): > 100 µM
TGI (HL-60(TB) leukemia): > 100 µM
TGI (SNB-19 CNS): > 100 µM
TGI (ACHN renal): > 100 µM
TGI (OVCAR-3 ovarian): > 100 µM
TGI (HCT-15 colon): > 100 µM
TGI (LOX IMVI melanoma): > 100 µM
TGI (SN12C renal): > 100 µM
TGI (NCI-H226 lung): > 100 µM
TGI (PC-3 prostate): > 100 µM
TGI (MCF7 breast): > 100 µM
TGI (SF-295 CNS): > 100 µM
TGI (UO-31 renal): > 100 µM
TGI (M14 melanoma): > 100 µM
TGI (SNB-75 CNS): > 100 µM
TGI (HCC-2998 colon): > 100 µM
TGI (HT29 colon): > 100 µM
TGI (TK-10 renal): > 100 µM
TGI (SF-539 CNS): > 100 µM
TGI (SK-MEL-5 melanoma): > 100 µM
TGI (MDA-N): > 100 µM
TGI (MDA-MB-231 breast): > 100 µM
TGI (U251 CNS): > 100 µM
TGI (SK-MEL-28 melanoma): > 100 µM
TGI (OVCAR-4 ovarian): > 100 µM
TGI (HOP-92 NSCLC): > 100 µM
TGI (NCI-H23 lung): > 100 µM
TGI (K-562 leukemia): > 100 µM
TGI (COLO 205 colon): > 100 µM
TGI (UACC-257 melanoma): > 100 µM
TGI (OVCAR-5 ovarian): > 100 µM
TGI (SW-620 colon): > 100 µM
TGI (OVCAR-8 ovarian): > 100 µM
TGI (RPMI-8226 leukemia): > 100 µM
TGI (NCI-H522 lung): > 100 µM
TGI (BT-549 breast): > 100 µM
TGI (SF-268 CNS): > 100 µM
TGI (786-0 renal): > 100 µM
TGI (CCRF-CEM leukemia): > 100 µM
TGI (RXF 393 renal): > 100 µM
TGI (NCI/ADR-RES ovarian): > 100 µM
TGI (KM12 colon): > 100 µM
TGI (HOP-62 NSCLC): > 100 µM
TGI (MOLT-4 leukemia): > 100 µM
TGI (DU-145 prostate): > 100 µM
TGI (MDA-MB-435): > 100 µM
TGI (A549 NSCLC): > 100 µM
TGI (HCT-116 colon): > 100 µM
TGI (UACC-62 melanoma): > 100 µM
TGI (SK-OV-3 ovarian): > 100 µM
TGI (SR leukemia): > 100 µM

Source: PubChem BioAssay (NCI)
